Measured values: article PMC8960095 (Virus Genes, 2022)
Where two headings read alike, the source gives them in different places.

Columns and labels:
Vero-E6 cells = conditions: same study as IC50 against wt CHIKV; cited from earlier work
wt CHIKV = conditions: MOI 0.005, cited from earlier work
Toxicity assay [1] = conditions: African green monkey, Vero-B4 cells (non-infected)
wt CHIKV^Brazil [2] = test: IC50 evaluation: inhibition of CHIKV-induced cell death; type: cell-based, Chikungunya virus; conditions: for dose-dependent inhibition of CPE / efficacy in Vero-B4: Vero-B4 cells, CHIKV^Brazil, T-1105 range 5–100 µM
Toxicity assay [3] = conditions: human, U138 cells (non-infected)
U138 cells = test: Toxicity assay; conditions: for cell damage in toxicity testing: non-infected U138, HCQ 10 µM, T-1105 10 and 50 µM, 4 days
CHIKV^Brazil = type: cell-based, Chikungunya virus; conditions: MOI 0.64, RBV 410 µM (p < 0.001), HCQ 10 µM (p < 0.0001)
wt CHIKV^Brazil [4] = test: IC50 evaluation: inhibition of CHIKV-induced cell death; type: cell-based, Chikungunya virus; conditions: for IC50: Chikungunya virus, 96 h, read-out: IC50 (µM) U138; for dose-dependent inhibition of CPE / antiviral effect in U138: U138 cells, wt CHIKV^Brazil
[5] = test system: CHIKV Indian Ocean strain 899 (lab); conditions: MOI 0.01, Vero cells; cited from earlier work
Vero-B4 cells = test: Toxicity assay; conditions: read-out: CC50 (µM) Vero-B4; non-infected Vero-B4 cells; MTS after 4 days
Vero cells = conditions: cited from earlier work

Question: For CCN(CC)CCCC(C)Nc1ccnc2cc(Cl)ccc12 (stereo not shown) [CQ, chloroquine], which CC50 (Vero-E6 cells) is on record?
Answer: > 36 µM

Question: What about the IC50 (wt CHIKV; wt CHIKV) of the same compound?
Answer: 5 to 10.6 µM

Question: For CCN(CCO)CCCC(C)Nc1ccnc2cc(Cl)ccc12 (stereo not shown) [Hydroxychloroquine, hydroxychloroquine], which CC50 at 4 days (Toxicity assay [1]) is on record?
Answer: 49.6 µM

Question: What about the IC50 (wt CHIKV^Brazil [2]; Chikungunya virus, 96 h, read-out: IC50 (µM) Vero-B4) of the same compound?
Answer: 18.3 µM

Question: And the “dose-dependent inhibition of CPE / efficacy in Vero-B4” value (wt CHIKV^Brazil [2])?
Answer: dose-dependent inhibition of CPE

Question: What about the CC50 at 4 days (Toxicity assay [3]) of the same compound?
Answer: 35.5 µM

Question: What about the “cell damage in toxicity testing” value (U138 cells) of the same compound?
Answer: Neither T-1105 nor HCQ led to significant cell damage

Question: What about the “protection of U138 cells from CPE by wt CHIKV^Brazil compared with CHIKV^Ross” value (CHIKV^Brazil) of the same compound?
Answer: significantly better

Question: And the IC50 (wt CHIKV^Brazil [4])?
Answer: 4.14 µM

Question: And the “dose-dependent inhibition of CPE / antiviral effect in U138” value (wt CHIKV^Brazil [4])?
Answer: dose-dependent inhibition of CPE

Question: Which CC50 at 4 days (Toxicity assay [1]) does the source give for NC(=O)c1ncn([C@@H]2O[C@H](CO)[C@@H](O)[C@H]2O)n1 [Ribavirin, ribavirin] here?
Answer: > 1000 µM

Question: What about the CC50 (Vero-E6 cells) of the same compound?
Answer: > 500 µM

Question: What about the IC50 (wt CHIKV; comparable experiments in Vero-E6 cells) of the same compound?
Answer: 424 to 766 µM

Question: What about the IC50 (wt CHIKV; wt CHIKV) of the same compound?
Answer: 424 µM

Question: What about the surviving cells (wt CHIKV^Brazil [2]; 1000 µM RBV (highest concentration), infected Vero-B4 cells, at MOI 0.325) of the same compound?
Answer: 37.55 ± 6.15%

Question: And the “dose-dependent inhibition of CPE / efficacy in Vero-B4” value (wt CHIKV^Brazil [2])?
Answer: dose-dependent inhibition of CPE

Question: And the CC50 at 4 days (Toxicity assay [3])?
Answer: > 500 µM

Question: What about the viability at 4 days, 410 µM (Toxicity assay [3]) of the same compound?
Answer: 70.4 ± 13.1%

Question: What about the “protection of U138 cells from CPE by wt CHIKV^Brazil compared with CHIKV^Ross” value (CHIKV^Brazil) of the same compound?
Answer: significantly better

Question: And the IC50 (wt CHIKV^Brazil [4])?
Answer: 166 µM

Question: And the “dose-dependent inhibition of CPE / antiviral effect in U138” value (wt CHIKV^Brazil [4])?
Answer: dose-dependent inhibition of CPE

Question: For NC(=O)c1ncc[nH]c1=O [T-1105], which IC50 [5] is on record?
Answer: 7 to 47 µM

Question: What about the CC50 (Vero-B4 cells) of the same compound?
Answer: > 100 µM

Question: What about the “dose-dependent inhibition of CPE / efficacy in Vero-B4” value (wt CHIKV^Brazil [2]) of the same compound?
Answer: no dose-dependent efficacy

Question: And the “cell damage in toxicity testing” value (U138 cells)?
Answer: Neither T-1105 nor HCQ led to significant cell damage

Question: And the CC50 (U138 cells; read-out: CC50 (µM) U138, non-infected U138 cells, MTS after 4 days)?
Answer: > 100 µM

Question: And the CC50 (Vero cells)?
Answer: 571 µM

Question: What about the “dose-dependent inhibition of CPE / antiviral effect in U138” value (wt CHIKV^Brazil [4]) of the same compound?
Answer: dose-dependent effect
